Test results as given in patent US20250262241A1, “METHODS TO IMPROVE STABILITY OF VIRUS TRANSDUCTION OF y8 T CELLS AND APPLICATIONS THEREOF” (UNICET BIOTECH CO. LLC., priority 2021, published 2025).
Like-named read-outs stand apart in the source and are kept apart here.

Columns and labels:
[1] = test system: γδ1 T cells; test: CAR related lentivirus transduction of γδ1 T cells with small inhibitors; assay type: cell-based, human; settings: control finally around 2%
Procedure: (§1) For lentivirus transduction, 1×10^CFU lentivirus diluted in 200 ul PBS were added in a 24-well plate which were pre-coated with RetroNectin reagent (Takara) and centrifugated by 2,000 g for 2 hours at 32° C. After centrifugation, removed the supernatant and washed the plate with PBS three times slightly.
(§2) The plates were incubated at 37° C., 5% CO2.
To test the application of these small molecule on improving the transduction rate of δδ1 T cells. We evaluated the transduction rate of δδ1 T cells with/without different dosage of small molecules.

[2] = test system: γδ2 T cells; test: CAR (B7H3) related lentivirus transduction of γδ2 T cells with small inhibitors: transduction rate; assay type: cell-based, human
Procedure: VSV-G pseudotyped lentiviral vectors were applied in this method. 1×10^7 293T cells were plated into a poly-D-lysine coated 100 mm dish. Next day the cells were transfected with 6 μg of pCDH-EF1-MCS-T2A-copGFP plasmid (Addgene, Plasmid #72263) or pCDH-EF1-CAR-T2A-copGFP plasmid modified from pCDH-EF1-MCS-T2A-copGFP, 4 μg of pspAx2 (Addgene, Plasmid #12260), 2 μg of pCMV-VSV-G (Addgene, Plasmid #8454) using 30 ug PEI transfection regents. After 8 hours of transfection, the cell culture medium was changed. The supernatant were collected 48 hours and 72 hours later. Concentrated the virus with Lenti-X™ Concentrator (Takara) and monitored the virus titers by transduction of 293T cells and stored the concentrated virus in −80° C. until further use.
as §1
For the virus transduction of γδ2 T cells, seeded 1×10^PBMCs which were in vitro cultured after 48 hours in the γδ2 T cell culture medium mentioned above (Gibco serum free medium with rhIL-2 and ZOL). Added or not small inhibitors and mixed well and concentrated the cells by 800 g for 10 mins at 32° C. The plates were incubated at 37° C., 5% CO2. Discarded the small inhibitors regent by changing the cell culture medium 24 hours later.
Calculate the cell number by an automated cell counter and the transduction rate (GFP positive rate) was analyzed by flow cytometry every 2 to 3 days. The transduction rate was monitored in the gate of γδ2 or γδ1 T cells.

[3] = test system: γδ2 T cells; assay type: cell-based, human
Procedure: as §2

[4] = target: T1, ubiquitin-specific protease USP21 (Homo sapiens, UniProt Q9UK80); settings: cited from earlier work
T1 sequence (Q9UK80 1-565): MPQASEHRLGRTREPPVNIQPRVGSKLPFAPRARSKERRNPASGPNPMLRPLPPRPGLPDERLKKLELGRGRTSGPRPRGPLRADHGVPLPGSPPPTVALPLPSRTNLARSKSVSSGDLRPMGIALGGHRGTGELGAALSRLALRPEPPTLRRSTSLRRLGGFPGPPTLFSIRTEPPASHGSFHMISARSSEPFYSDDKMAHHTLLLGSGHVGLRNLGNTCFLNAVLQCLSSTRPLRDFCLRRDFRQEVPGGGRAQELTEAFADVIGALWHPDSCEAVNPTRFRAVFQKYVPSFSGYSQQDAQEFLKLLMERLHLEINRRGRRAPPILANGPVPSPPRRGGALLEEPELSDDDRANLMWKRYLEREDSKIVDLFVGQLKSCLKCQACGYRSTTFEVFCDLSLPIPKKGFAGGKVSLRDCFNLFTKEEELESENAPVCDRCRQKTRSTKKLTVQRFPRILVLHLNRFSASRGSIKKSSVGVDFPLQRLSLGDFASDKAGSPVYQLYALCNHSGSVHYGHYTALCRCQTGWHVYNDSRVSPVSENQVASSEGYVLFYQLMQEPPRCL

[5] = target: ubiquitin-specific protease USP7 (Homo sapiens, UniProt Q93009); settings: cited from earlier work
Sequence of ubiquitin-specific protease USP7 (Q93009 whole entry): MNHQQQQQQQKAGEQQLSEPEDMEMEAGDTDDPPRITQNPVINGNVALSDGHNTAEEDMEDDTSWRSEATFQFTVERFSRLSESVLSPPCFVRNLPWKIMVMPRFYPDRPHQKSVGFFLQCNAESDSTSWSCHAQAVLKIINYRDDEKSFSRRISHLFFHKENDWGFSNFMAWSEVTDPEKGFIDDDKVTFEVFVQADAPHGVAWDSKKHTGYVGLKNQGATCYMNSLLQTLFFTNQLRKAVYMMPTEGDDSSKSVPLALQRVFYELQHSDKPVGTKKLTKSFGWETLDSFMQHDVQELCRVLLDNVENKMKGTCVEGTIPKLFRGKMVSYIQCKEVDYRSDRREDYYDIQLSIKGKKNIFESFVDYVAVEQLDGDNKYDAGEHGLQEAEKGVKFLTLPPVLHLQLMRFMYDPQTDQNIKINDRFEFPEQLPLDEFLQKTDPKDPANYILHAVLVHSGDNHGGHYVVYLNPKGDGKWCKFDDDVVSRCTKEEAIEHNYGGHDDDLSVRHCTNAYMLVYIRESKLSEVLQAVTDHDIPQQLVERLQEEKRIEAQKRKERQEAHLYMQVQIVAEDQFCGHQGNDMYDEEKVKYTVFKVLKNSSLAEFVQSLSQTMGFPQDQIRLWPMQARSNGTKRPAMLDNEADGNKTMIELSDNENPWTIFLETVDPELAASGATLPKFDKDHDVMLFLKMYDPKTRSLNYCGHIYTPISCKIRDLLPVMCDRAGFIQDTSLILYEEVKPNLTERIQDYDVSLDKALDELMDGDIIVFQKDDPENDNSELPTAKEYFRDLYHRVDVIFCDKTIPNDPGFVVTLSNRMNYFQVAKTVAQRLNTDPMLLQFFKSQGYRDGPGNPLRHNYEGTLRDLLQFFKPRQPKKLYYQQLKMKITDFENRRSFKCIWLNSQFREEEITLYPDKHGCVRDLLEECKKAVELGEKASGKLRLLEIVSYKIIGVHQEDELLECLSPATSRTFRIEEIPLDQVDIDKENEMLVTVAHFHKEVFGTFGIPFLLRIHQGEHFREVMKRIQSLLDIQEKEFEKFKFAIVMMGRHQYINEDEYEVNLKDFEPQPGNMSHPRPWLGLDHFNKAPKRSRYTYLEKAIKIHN

Compound: CC(C)C[C@H](NC(=O)[C@H](Cc1ccccc1)NC(=O)c1cnccn1)B(O)O [Bortezomib]
- effect on transduction rate of γδ1 T cells ([1]; 0.04 μM, 0.4 μM or 4 μM): All the molecules except for Bortezomib could improve the transduction rate
- transduction rate ([2]; 0.04 uM, control around 5% at Day10): ~50%
- transduction rate ([2]; 0.4 uM and 4 uM, control around 5% at Day10): higher than 20%
- cell growth ([3]; 0.04 uM, 0.4 uM, 4 uM): impaired the cell growth in a dosage dependent manner
- cell number ([3]; 0.4 uM and 4 uM): significantly cell number loss

Compound: Cc1ccc(S(=O)(=O)/C=C/C#N)cc1 [BAY11-7082]
- IC50 [4]: 960 nM
- effect on transduction rate of γδ1 T cells ([1]; 50 uM): could improve the transduction rate
- effect on transduction rate ([2]; 0.5 uM to 50 uM): enhance the transduction rate in a dosage dependent manner
- transduction rate ([2]; 50 uM, control around 5% at Day10): higher than 70%
- cell growth ([3]; 0.5 uM to 50 uM, higher dosage, less total cell number): impaired the cell growth in a dosage dependent manner
- IC50 [5]: 190 nM

Compound: COc1cc(/C=C/C(=O)CC(=O)/C=C/c2ccc(O)c(OC)c2)ccc1O [Curcumin]
- effect on transduction rate of γδ1 T cells ([1]; 10 uM): could improve the transduction rate
- transduction rate ([2]; 10 uM, day 10, control around 5%): higher than 20%
- effect on transduction rate ([2]; 100 uM (highest dosage)): slightly enhance the transduction rate
- effect on transduction rate ([2]; luM (low dosage)): did not enhance the transduction rate
- cell growth ([3]; 10 uM): inhibited the cell growth slightly
- cell growth ([3]; 100 uM): significantly impaired the cell growth
- cell growth ([3]; luM (low dosage)): enhanced the cell growth

Compound: COc1cc(O)c2c(c1)/C=C/C[C@H](O)[C@H](O)C(=O)/C=C\C[C@H](C)OC2=O [(5Z)-7-Oxozeaenol]
- effect on transduction rate of γδ1 T cells ([1]; 6 uM): could improve the transduction rate
- transduction rate ([2]; 0.6 uM, control around 5% at Day10): higher than 20%
- transduction rate ([2]; 6 uM, control around 5% at Day10): higher than 30%
- effect on transduction rate ([2]; 60 uM compared with 6 uM): did not perform better to improve the transduction rate
- cell growth ([3]; 0.6 uM and 6 uM): did not influence the cell growth
- cell growth ([3]; 60 uM compared with 6 uM): impaired the cell growth

Compound: Nc1ncc2[nH]cnc2n1 [2-Aminopurine]
- effect on transduction rate of γδ1 T cells ([1]; 500 uM): could improve the transduction rate
- effect on transduction rate ([2]; 5 uM to 500 uM): enhance the transduction rate in a dosage dependent manner
- transduction rate ([2]; 500 uM, control around 5% at Day10): around 60%
- cell growth ([3]; 5 uM to 500 uM): did not impair the cell growth

Compound: O=C(Nc1nc2ccccc2n1CCN1CCOCC1)c1cccc([N+](=O)[O-])c1 [IRAK1/4 Inhibitor I]
- effect on transduction rate of γδ1 T cells ([1]; 0.3 uM): could improve the transduction rate
- effect on transduction rate ([2]; 0.03 uM to 3 uM): enhance the transduction rate in a dosage dependent manner
- transduction rate ([2]; 3 uM, control around 5% at Day10): higher than 35%
- cell growth ([3]; 0.03 uM to 3 uM): did not impair the cell growth

Compound: C[C@@H]1C[C@H]2[C@@H]3CCC4=CC(=O)C=C[C@]4(C)[C@@]3(F)[C@@H](O)C[C@]2(C)[C@@]1(O)C(=O)CO [Dexamethasone]
- transduction rate ([2]; 6.4 uM, control around 5% at Day10): higher than 25%
- cell growth ([3]; 0.064 uM to 6.4 uM): did not impair the cell growth
